Measured values from patent publication US9149038B2, “4-amino-6-(heterocyclic)picolinates and 6-amino-2-(heterocyclic)pyrimidine-4-carboxylates and their use as herbicides” (Dow AgroSciences LLC, priority 2013, dated 2015).
Read-outs that look alike come from different tables or passages of the source.

Experiments:
[1] = system: Key Broadleaf Weed and Crop Species; experiment: Post-Emergent Test II: postemergent herbicidal activity, visual rating after 14 d (Table 7); type: in vivo; details: post-emergence, 336 h; for pest or weed control at 35 g/ha: 35 g ai/ha; for pest or weed control at 70 g/ha: 70 g ai/ha; for pest or weed control at 140 g/ha: 140 g ai/ha
How it was run: (§1)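 Visual 0-100% injury score (0 no injury, 100 complete kill) at 14 d post-spray, relative to untreated plants. Seedlings at 1st-2nd true leaf stage; track sprayer at 187 L/ha, highest rate plus ½×, ¼×, ⅛×, 1/16× serial dilutions. Subirrigated after treatment.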

[2] = system: Key Grass and Sedge Weeds as well as Grass Crops; experiment: Post-Emergent Test II: postemergent herbicidal activity, visual rating after 14 d (Table 8); type: in vivo; details: post-emergence, 336 h; for pest or weed control at 35 g/ha: 35 g ai/ha; for pest or weed control at 70 g/ha: 70 g ai/ha; for pest or weed control at 140 g/ha: 140 g ai/ha
How it was run: as §1

[3] = lambsquarters (Chenopodium album), read-out: Visual Growth Reduction (%) 14 Days After Application CHEAL
[4] = oilseed rape, canola (Brassica napus), read-out: Visual Growth Reduction (%) 14 Days After Application BRSNN
[5] = redroot pigweed (Amaranthus retroflexus), read-out: Visual Growth Reduction (%) 14 Days After Application AMARE
[6] = sunflower (Helianthus annuus), read-out: Visual Growth Reduction (%) 14 Days After Application HELAN
[7] = velvetleaf (Abutilon theophrasti), read-out: Visual Growth Reduction (%) 14 Days After Application ABUTH
[8] = wild poinsettia (Euphorbia heterophylla), read-out: Visual Growth Reduction (%) 14 Days After Application EPHHL
[9] = barnyardgrass (Echinochloa crus-galli), read-out: Visual Growth Reduction (%) 14 Days After Application ECHCG
[10] = giant foxtail (Setaria faberi), read-out: Visual Growth Reduction (%) 14 Days After Application SETFA
[11] = maize, corn (Zea mays), read-out: Visual Growth Reduction (%) 14 Days After Application ZEAMX
[12] = rice (Oryza sativa), read-out: Visual Growth Reduction (%) 14 Days After Application ORYSA
[13] = wheat, spring (Triticum aestivum), read-out: Visual Growth Reduction (%) 14 Days After Application TRZAS
[14] = yellow nutsedge (Cyperus esculentus), read-out: Visual Growth Reduction (%) 14 Days After Application CYPES

Compound | pest or weed control at 35 g/ha [1, 3] [%] | pest or weed control at 70 g/ha [1, 3] [%] | pest or weed control at 140 g/ha [1, 3] [%] | pest or weed control at 35 g/ha [1, 4] [%] | pest or weed control at 70 g/ha [1, 4] [%] | pest or weed control at 140 g/ha [1, 4] [%] | pest or weed control at 35 g/ha [1, 5] [%] | pest or weed control at 70 g/ha [1, 5] [%] | pest or weed control at 140 g/ha [1, 5] [%] | pest or weed control at 35 g/ha [1, 6] [%] | pest or weed control at 70 g/ha [1, 6] [%] | pest or weed control at 140 g/ha [1, 6] [%] | pest or weed control at 35 g/ha [1, 7] [%] | pest or weed control at 70 g/ha [1, 7] [%] | pest or weed control at 140 g/ha [1, 7] [%] | pest or weed control at 35 g/ha [1, 8] [%] | pest or weed control at 70 g/ha [1, 8] [%] | pest or weed control at 140 g/ha [1, 8] [%] | pest or weed control at 35 g/ha [2, 9] [%] | pest or weed control at 70 g/ha [2, 9] [%] | other results
COC(=O)c1nc(-c2ccc3c(c2)OC(C)(C)O3)nc(N)c1Cl [Compound 55] | 45 to 59 | 60 to 74 | 75 to 84 | 0 to 29 | 0 to 29 | 0 to 29 | 45 to 59 | 85 to 94 | 95 to 100 | 45 to 59 | 60 to 74 | 75 to 84 | 75 to 84 | 75 to 84 | 75 to 84 | 95 to 100 | 95 to 100 | 95 to 100 | 75 to 84 | 75 to 84 | pest or weed control at 140 g/ha [2, 9]: 75 to 84%; pest or weed control at 35 g/ha [2, 10]: 75 to 84%; pest or weed control at 70 g/ha [2, 10]: 85 to 94%; pest or weed control at 140 g/ha [2, 10]: 85 to 94%; pest or weed control at 35 g/ha [2, 11]: 60 to 74%; pest or weed control at 70 g/ha [2, 11]: 60 to 74%; pest or weed control at 140 g/ha [2, 11]: 60 to 74%; pest or weed control at 35 g/ha [2, 12]: 0 to 29%; pest or weed control at 70 g/ha [2, 12]: 0 to 29%; pest or weed control at 140 g/ha [2, 12]: 0 to 29%; pest or weed control at 35 g/ha [2, 13]: 0 to 29%; pest or weed control at 70 g/ha [2, 13]: 0 to 29%; pest or weed control at 140 g/ha [2, 13]: 0 to 29%; pest or weed control at 35 g/ha [2, 14]: 0 to 29%; pest or weed control at 70 g/ha [2, 14]: 0 to 29%; pest or weed control at 140 g/ha [2, 14]: 0 to 29%
COC(=O)c1nc(-c2ccc3c(c2OC)OC(F)(F)O3)cc(N)c1Cl [Compound 47] | 30 to 44 | 30 to 44 | 45 to 59 | 60 to 74 | 60 to 74 | 60 to 74 | 0 to 29 | 75 to 84 | 85 to 94 | 30 to 44 | 30 to 44 | 45 to 59 | 0 to 29 | 30 to 44 | 60 to 74 | 0 to 29 | 0 to 29 | 0 to 29 | 0 to 29 | 0 to 29 | pest or weed control at 140 g/ha [2, 9]: 0 to 29%; pest or weed control at 35 g/ha [2, 10]: 0 to 29%; pest or weed control at 70 g/ha [2, 10]: 0 to 29%; pest or weed control at 140 g/ha [2, 10]: 0 to 29%; pest or weed control at 35 g/ha [2, 11]: 0 to 29%; pest or weed control at 70 g/ha [2, 11]: 0 to 29%; pest or weed control at 140 g/ha [2, 11]: 0 to 29%; pest or weed control at 35 g/ha [2, 12]: 0 to 29%; pest or weed control at 70 g/ha [2, 12]: 0 to 29%; pest or weed control at 140 g/ha [2, 12]: 0 to 29%; pest or weed control at 35 g/ha [2, 13]: 0 to 29%; pest or weed control at 70 g/ha [2, 13]: 0 to 29%; pest or weed control at 140 g/ha [2, 13]: 0 to 29%; pest or weed control at 35 g/ha [2, 14]: 0 to 29%; pest or weed control at 70 g/ha [2, 14]: 0 to 29%; pest or weed control at 140 g/ha [2, 14]: 0 to 29%
COC(=O)c1nc(-c2cc3c(cc2F)OCO3)nc(N)c1OC [Compound 69] | 0 to 29 | 0 to 29 | 0 to 29 | 75 to 84 | 75 to 84 | 95 to 100 | 0 to 29 | 0 to 29 | 0 to 29 | 0 to 29 | 45 to 59 | 60 to 74 | 0 to 29 | 0 to 29 | 0 to 29 | 0 to 29 | 60 to 74 | 75 to 84 | 0 to 29 | 0 to 29 | pest or weed control at 140 g/ha [2, 9]: 0 to 29%; pest or weed control at 35 g/ha [2, 10]: 0 to 29%; pest or weed control at 70 g/ha [2, 10]: 0 to 29%; pest or weed control at 140 g/ha [2, 10]: 0 to 29%; pest or weed control at 35 g/ha [2, 11]: 0 to 29%; pest or weed control at 70 g/ha [2, 11]: 0 to 29%; pest or weed control at 140 g/ha [2, 11]: 0 to 29%; pest or weed control at 35 g/ha [2, 12]: 0 to 29%; pest or weed control at 70 g/ha [2, 12]: 0 to 29%; pest or weed control at 140 g/ha [2, 12]: 0 to 29%; pest or weed control at 35 g/ha [2, 13]: 0 to 29%; pest or weed control at 70 g/ha [2, 13]: 0 to 29%; pest or weed control at 140 g/ha [2, 13]: 0 to 29%; pest or weed control at 35 g/ha [2, 14]: 0 to 29%; pest or weed control at 70 g/ha [2, 14]: 0 to 29%; pest or weed control at 140 g/ha [2, 14]: 0 to 29%
